According to patent publication US8192962B2, “Processes for detecting toxic substances” (Daikin Industries, Ltd., priority 2001, dated 2012):

Test system: Unknown protein yeast genes
Experiment: DNA chip mRNA expression in yeast, unknown protein yeast genes (Table 1)
Assay type: cell-based, Saccharomyces cerevisiae S288C
In short: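 In this screen, yeast in logarithmic growth are challenged for two hours with a toxic substance at a non-lethal inhibitory concentration. Their mRNA, converted to Cy3- or Cy5-labeled cDNA, hybridizes at 65° C. to a chip spanning every yeast gene, and expression is expressed as a ratio to untreated cells.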

Na2As [(1)]
The level of expressed mRNA in the presence of chemical substance/The level of expressed mRNA in the absence of chemical substance (yeast gene YAL053W, incubated two hours with chemical substance): 0.9 | The level of expressed mRNA in the presence of chemical substance/The level of expressed mRNA in the absence of chemical substance (yeast gene YBL048W): 2.0 | The level of expressed mRNA in the presence of chemical substance/The level of expressed mRNA in the absence of chemical substance (yeast gene YBL107C): 1.4 | The level of expressed mRNA in the presence of chemical substance/The level of expressed mRNA in the absence of chemical substance (yeast gene YDL072C, incubated two hours with chemical substance): 1.3 | The level of expressed mRNA in the presence of chemical substance/The level of expressed mRNA in the absence of chemical substance (yeast gene YDL204W, incubated two hours with chemical substance): 1.4 | The level of expressed mRNA in the presence of chemical substance/The level of expressed mRNA in the absence of chemical substance (yeast gene YDL222C, incubated two hours with chemical substance): 0.9 | The level of expressed mRNA in the presence of chemical substance/The level of expressed mRNA in the absence of chemical substance (yeast gene YDR330W, incubated two hours with chemical substance): 0.8 | The level of expressed mRNA in the presence of chemical substance/The level of expressed mRNA in the absence of chemical substance (yeast gene YDR411C, incubated two hours with chemical substance): 0.9 | The level of expressed mRNA in the presence of chemical substance/The level of expressed mRNA in the absence of chemical substance (yeast gene YDR511W, incubated two hours with chemical substance): 1.3 | The level of expressed mRNA in the presence of chemical substance/The level of expressed mRNA in the absence of chemical substance (yeast gene YDR545W, incubated two hours with chemical substance): 0.6 | The level of expressed mRNA in the presence of chemical substance/The level of expressed mRNA in the absence of chemical substance (yeast gene YEL001C, incubated two hours with chemical substance): 1.0 | The level of expressed mRNA in the presence of chemical substance/The level of expressed mRNA in the absence of chemical substance (yeast gene YER004W, incubated two hours with chemical substance): 1.0 | The level of expressed mRNA in the presence of chemical substance/The level of expressed mRNA in the absence of chemical substance (yeast gene YER035W, incubated two hours with chemical substance): 1.4 | The level of expressed mRNA in the presence of chemical substance/The level of expressed mRNA in the absence of chemical substance (yeast gene YER079W, incubated two hours with chemical substance): 1.1 | The level of expressed mRNA in the presence of chemical substance/The level of expressed mRNA in the absence of chemical substance (yeast gene YER106W, incubated two hours with chemical substance): 1.3 | The level of expressed mRNA in the presence of chemical substance/The level of expressed mRNA in the absence of chemical substance (yeast gene YER158C, incubated two hours with chemical substance): 1.2 | The level of expressed mRNA in the presence of chemical substance/The level of expressed mRNA in the absence of chemical substance (yeast gene YER163C, incubated two hours with chemical substance): 1.1 | The level of expressed mRNA in the presence of chemical substance/The level of expressed mRNA in the absence of chemical substance (yeast gene YER175C, incubated two hours with chemical substance): 0.9 | The level of expressed mRNA in the presence of chemical substance/The level of expressed mRNA in the absence of chemical substance (yeast gene YFL006W, incubated two hours with chemical substance): 0.8 | The level of expressed mRNA in the presence of chemical substance/The level of expressed mRNA in the absence of chemical substance (yeast gene YFL010C, incubated two hours with chemical substance): 1.0 | The level of expressed mRNA in the presence of chemical substance/The level of expressed mRNA in the absence of chemical substance (yeast gene YFL024C): 1.0 | The level of expressed mRNA in the presence of chemical substance/The level of expressed mRNA in the absence of chemical substance (yeast gene YFL032W, incubated two hours with chemical substance): 0.4 | The level of expressed mRNA in the presence of chemical substance/The level of expressed mRNA in the absence of chemical substance (yeast gene YGL037C, incubated two hours with chemical substance): 1.5 | The level of expressed mRNA in the presence of chemical substance/The level of expressed mRNA in the absence of chemical substance (yeast gene YGL047W, incubated two hours with chemical substance): 1.0 | The level of expressed mRNA in the presence of chemical substance/The level of expressed mRNA in the absence of chemical substance (yeast gene YGL053W, incubated two hours with chemical substance): 1.5 | The level of expressed mRNA in the presence of chemical substance/The level of expressed mRNA in the absence of chemical substance (yeast gene YGL121C): 2.6 | The level of expressed mRNA in the presence of chemical substance/The level of expressed mRNA in the absence of chemical substance (yeast gene YGL199C, incubated two hours with chemical substance): 1.1 | The level of expressed mRNA in the presence of chemical substance/The level of expressed mRNA in the absence of chemical substance (yeast gene YGR101W, incubated two hours with chemical substance): 1.0 | The level of expressed mRNA in the presence of chemical substance/The level of expressed mRNA in the absence of chemical substance (yeast gene YGR110W): 1.6 | The level of expressed mRNA in the presence of chemical substance/The level of expressed mRNA in the absence of chemical substance (yeast gene YGR130C, incubated two hours with chemical substance): 0.9 | The level of expressed mRNA in the presence of chemical substance/The level of expressed mRNA in the absence of chemical substance (yeast gene YGR154C, incubated two hours with chemical substance): 1.8 | The level of expressed mRNA in the presence of chemical substance/The level of expressed mRNA in the absence of chemical substance (yeast gene YGR221C, incubated two hours with chemical substance): 0.9 | The level of expressed mRNA in the presence of chemical substance/The level of expressed mRNA in the absence of chemical substance (yeast gene YHR138C, incubated two hours with chemical substance): 2.8 | The level of expressed mRNA in the presence of chemical substance/The level of expressed mRNA in the absence of chemical substance (yeast gene YHR199C, incubated two hours with chemical substance): 1.9 | The level of expressed mRNA in the presence of chemical substance/The level of expressed mRNA in the absence of chemical substance (yeast gene YIL023C, incubated two hours with chemical substance): 1.1 | The level of expressed mRNA in the presence of chemical substance/The level of expressed mRNA in the absence of chemical substance (yeast gene YIL041W, incubated two hours with chemical substance): 1.0 | The level of expressed mRNA in the presence of chemical substance/The level of expressed mRNA in the absence of chemical substance (yeast gene YIL087C, incubated two hours with chemical substance): 1.3 | The level of expressed mRNA in the presence of chemical substance/The level of expressed mRNA in the absence of chemical substance (yeast gene YJL057C, incubated two hours with chemical substance): 1.5 | The level of expressed mRNA in the presence of chemical substance/The level of expressed mRNA in the absence of chemical substance (yeast gene YJL066C, incubated two hours with chemical substance): 0.9 | The level of expressed mRNA in the presence of chemical substance/The level of expressed mRNA in the absence of chemical substance (yeast gene YJL082W, incubated two hours with chemical substance): 1.4 | The level of expressed mRNA in the presence of chemical substance/The level of expressed mRNA in the absence of chemical substance (yeast gene YJL151C, incubated two hours with chemical substance): 1.0 | The level of expressed mRNA in the presence of chemical substance/The level of expressed mRNA in the absence of chemical substance (yeast gene YJL152W, incubated two hours with chemical substance): 0.9 | The level of expressed mRNA in the presence of chemical substance/The level of expressed mRNA in the absence of chemical substance (yeast gene YJL161W, incubated two hours with chemical substance): 1.7 | The level of expressed mRNA in the presence of chemical substance/The level of expressed mRNA in the absence of chemical substance (yeast gene YJL171C, incubated two hours with chemical substance): 2.3 | The level of expressed mRNA in the presence of chemical substance/The level of expressed mRNA in the absence of chemical substance (yeast gene YJR008W, incubated two hours with chemical substance): 1.6 | The level of expressed mRNA in the presence of chemical substance/The level of expressed mRNA in the absence of chemical substance (yeast gene YJR054W, incubated two hours with chemical substance): 0.8 | The level of expressed mRNA in the presence of chemical substance/The level of expressed mRNA in the absence of chemical substance (yeast gene YKL071W): 8.3 | The level of expressed mRNA in the presence of chemical substance/The level of expressed mRNA in the absence of chemical substance (yeast gene YKL086W, incubated two hours with chemical substance): 1.0 | The level of expressed mRNA in the presence of chemical substance/The level of expressed mRNA in the absence of chemical substance (yeast gene YKL151C, incubated two hours with chemical substance): 1.2 | The level of expressed mRNA in the presence of chemical substance/The level of expressed mRNA in the absence of chemical substance (yeast gene YKL153W, incubated two hours with chemical substance): 1.1
